Source: patent US9957271B2, “Substituted bicyclic aza-heterocycles and analogues as sirtuin modulators” (GlaxoSmithKline, LLC, priority 2012, dated 2018)

Tests used:
SIRT1 [1] = target: T1, SIRT1 (Homo sapiens, UniProt Q96EB6); assay: TAMRA based mass spectrometry assay of SIRT1 activity; format: biochemical; details: TAMRA peptide substrate; for TAMRA EC1.5: concentration giving 150% activation of SIRT1; for Emax: percent maximum fold activation, read-out: TAMRA % Fold Act
T1 sequence (Q96EB6 1-747): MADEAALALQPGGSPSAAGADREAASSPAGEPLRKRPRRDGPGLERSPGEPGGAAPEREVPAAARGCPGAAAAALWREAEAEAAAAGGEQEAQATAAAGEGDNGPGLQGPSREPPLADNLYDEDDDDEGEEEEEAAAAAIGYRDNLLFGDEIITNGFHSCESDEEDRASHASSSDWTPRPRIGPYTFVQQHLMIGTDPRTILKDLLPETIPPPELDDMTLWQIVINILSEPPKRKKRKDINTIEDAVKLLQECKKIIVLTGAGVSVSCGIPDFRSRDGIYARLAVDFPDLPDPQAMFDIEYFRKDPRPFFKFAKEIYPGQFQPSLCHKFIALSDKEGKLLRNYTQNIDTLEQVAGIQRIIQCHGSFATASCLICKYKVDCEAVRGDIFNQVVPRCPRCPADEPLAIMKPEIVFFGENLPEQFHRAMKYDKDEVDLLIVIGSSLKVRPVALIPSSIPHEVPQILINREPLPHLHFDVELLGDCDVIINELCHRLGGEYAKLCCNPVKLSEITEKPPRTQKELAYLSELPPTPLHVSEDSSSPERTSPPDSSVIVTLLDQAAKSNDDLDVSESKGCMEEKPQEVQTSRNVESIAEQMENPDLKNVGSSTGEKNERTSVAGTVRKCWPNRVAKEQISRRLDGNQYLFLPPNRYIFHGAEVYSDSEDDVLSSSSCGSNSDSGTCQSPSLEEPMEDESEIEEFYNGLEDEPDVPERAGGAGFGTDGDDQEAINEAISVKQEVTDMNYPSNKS
Method in brief: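 Deacetylation of a biotinylated, TAMRA-tagged p53-based peptide (0.5 μM) by 10 nM His-tagged SIRT1 with 120 μM βNAD+, 25 °C for 25 min, pH 8 Tris-acetate buffer, across a compound concentration range. Quenched by formic acid and read by mass spec as product peptide or OAADPR; activity relative to DMSO reactions, nicotinamide defining maximal inhibition.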

SIRT1 [2] = target: T1, SIRT1; assay: Trp mass spectrometry assay of SIRT1 activity; format: biochemical; details: Trp peptide substrate; for Trp EC1.5: concentration giving 150% activation of SIRT1; for Emax: percent maximum fold activation, read-out: Trp % Fold Act
Method in brief: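 Activation readout: EC1.5 (concentration raising activity 50% over control) and percent maximum activation, from mass-spec quantitation of OAADPR or deacetylated Trp peptide. Reaction: 0.5 μM acetylated Trp peptide, 120 μM βNAD+, 10 nM bacterially expressed N-His SIRT1, pH 7.5 HEPES buffer with […], 25 min at 25° C.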

Row | Compound | TAMRA EC1.5 (SIRT1 [1]) | Emax (SIRT1 [1]) [%] | Trp EC1.5 (SIRT1 [2]) | Emax (SIRT1 [2]) [%]
1 | Cc1nc2ccc(-c3ccccc3OC(F)(F)F)nn2c1C(=O)Nc1ccncn1 [Compound 469] | A (EC1.5<1 μM) | ≥ 350 | B (EC1.5 1-25 μM) | ≥ 350
2 | Cc1nc2ccc(-c3ccccc3OC(F)(F)F)nn2c1C(=O)Nc1ccc(F)cn1 [Compound 472] | B (EC1.5 1-25 μM) | < 350 | C (EC1.5>25 μM) | < 350
3 | Cc1nc2c(C)cc(-c3ccccc3C(F)(F)F)nn2c1C(=O)Nc1ccncc1F [Compound 473] | A (EC1.5<1 μM) | ≥ 350 | A (EC1.5<1 μM) | ≥ 350
4 | Cc1cc(NC(=O)c2c(C)nc3c(C)cc(-c4ccccc4C(F)(F)F)nn23)nc(C)n1 [Compound 475] | A (EC1.5<1 μM) | ≥ 350 | B (EC1.5 1-25 μM) | ≥ 350
5 | Cc1nc2c(C)cc(-c3ccccc3OC(F)(F)F)nn2c1C(=O)Nc1ccncn1 [Compound 478] | A (EC1.5<1 μM) | ≥ 350 | A (EC1.5<1 μM) | ≥ 350
6 | Cc1cccc(NC(=O)c2c(C)nc3c(C)cc(-c4ccccc4OC(F)(F)F)nn23)n1 [Compound 480] | A (EC1.5<1 μM) | ≥ 350 | B (EC1.5 1-25 μM) | < 350
7 | Cc1cc(NC(=O)c2c(C)nc3c(C)cc(-c4ccccc4OC(F)(F)F)nn23)ccn1 [Compound 481] | A (EC1.5<1 μM) | ≥ 350 | A (EC1.5<1 μM) | ≥ 350
8 | O=C(Nc1ncn2ccc(-c3ccccc3C(F)(F)F)nc12)c1ccncn1 [Compound 484] | B (EC1.5 1-25 μM) | < 350 | C (EC1.5>25 μM) | < 350
9 | COc1cccc(NC(=O)c2cnn3ccc(-c4ccccc4C(F)(F)F)nc23)n1 [Compound 486] | A (EC1.5<1 μM) | ≥ 350 | A (EC1.5<1 μM) | ≥ 350
10 | O=C(Nc1cccc(N2CCOCC2)n1)c1cnc2ccc(N3CC[C@H](F)C3)nn12 [Compound 487, (S)-6-(3-fluoropyrrolidin-1-yl)-N-(6-morpholinopyridin-2-yl)imidazo[1,2-b]pyridazine-3-carboxamide] | B (EC1.5 1-25 μM) | < 350 | A (EC1.5<1 μM) | ≥ 350
11 | O=C(Nc1cccc(N2CCOCC2)n1)c1cnc2ccc(N3CCC(F)(F)C3)nn12 [Compound 489] | B (EC1.5 1-25 μM) | < 350 | A (EC1.5<1 μM) | ≥ 350
12 | Cc1cc(C)nc(NC(=O)c2cnc3ccc(N4CC[C@H](F)C4)nn23)c1 [Compound 490] | B (EC1.5 1-25 μM) | ≥ 350 | B (EC1.5 1-25 μM) | < 350
13 | Cc1nc2ccc(-c3ccccc3OC(F)(F)F)nn2c1C(=O)Nc1ccccn1 [Compound 496] | A (EC1.5<1 μM) | ≥ 350 | A (EC1.5<1 μM) | < 350
14 | Cc1nc2ccc(-c3ccccc3C(F)(F)F)nn2c1C(=O)Nc1ccncc1 [Compound 499] | A (EC1.5<1 μM) | ≥ 350 | A (EC1.5<1 μM) | ≥ 350
15 | O=C(Nc1cccnn1)c1cnn2ccc(-c3ccccc3C(F)(F)F)nc12 [Compound 505] | A (EC1.5<1 μM) | ≥ 350 | B (EC1.5 1-25 μM) | < 350
16 | Cc1cnc(NC(=O)c2cnn3ccc(-c4ccccc4C(F)(F)F)nc23)s1 [Compound 507] | A (EC1.5<1 μM) | ≥ 350 | B (EC1.5 1-25 μM) | < 350

Row | Compound | TAMRA EC1.5 (SIRT1 [1]) | Emax (SIRT1 [1]) [%] | Trp EC1.5 (SIRT1 [2]) | Emax (SIRT1 [2]) [%]
17 | Cc1csc(NC(=O)c2cnn3ccc(-c4ccccc4C(F)(F)F)nc23)n1 [Compound 508] | A (EC1.5<1 μM) | ≥ 350 | A (EC1.5<1 μM) | ≥ 350
18 | CN(C)[C@@H]1CCN(c2ccc3ncc(C(=O)Nc4cccc(N5CCOCC5)n4)n3n2)C1 [Compound 511] | B (EC1.5 1-25 μM) | < 350 | B (EC1.5 1-25 μM) | < 350
19 | Cc1cc(C)nc(NC(=O)c2cnc3ccc(N4CC[C@@H](N(C)C)C4)nn23)c1 [Compound 513] | B (EC1.5 1-25 μM) | < 350 | C (EC1.5>25 μM) | < 350
20 | Cc1cc(-c2ccccc2C(F)(F)F)nn2c(C(=O)Nc3cccnn3)cnc12 [Compound 514] | A (EC1.5<1 μM) | ≥ 350 | A (EC1.5<1 μM) | ≥ 350
21 | Cc1cc(C)nc(NC(=O)c2cnc3c(C)cc(-c4ccccc4C(F)(F)F)nn23)c1 [Compound 516] | A (EC1.5<1 μM) | ≥ 350 | B (EC1.5 1-25 μM) | < 350
22 | O=C(Nc1ccncc1F)c1cnn2ccc(-c3ccccc3C(F)(F)F)nc12 [Compound 517] | B (EC1.5 1-25 μM) | ≥ 350 | B (EC1.5 1-25 μM) | < 350
23 | O=C(Nc1ccc(F)cn1)c1cnn2ccc(-c3ccccc3C(F)(F)F)nc12 [Compound 518] | A (EC1.5<1 μM) | ≥ 350 | B (EC1.5 1-25 μM) | < 350
24 | COc1cccc(C(=O)Nc2cnn3ccc(-c4ccccc4C(F)(F)F)nc23)n1 [Compound 521] | A (EC1.5<1 μM) | ≥ 350 | A (EC1.5<1 μM) | < 350
25 | Cc1ccnc(C(=O)Nc2cnn3ccc(-c4ccccc4C(F)(F)F)nc23)c1 [Compound 523] | A (EC1.5<1 μM) | ≥ 350 | C (EC1.5>25 μM) | < 350
26 | Cc1cc(C)nc(C(=O)Nc2cnn3ccc(-c4ccccc4C(F)(F)F)nc23)c1 [Compound 524] | A (EC1.5<1 μM) | ≥ 350 | C (EC1.5>25 μM) | < 350
27 | Cc1nc(C(=O)Nc2cnn3ccc(-c4ccccc4C(F)(F)F)nc23)cs1 [Compound 527] | A (EC1.5<1 μM) | ≥ 350 | B (EC1.5 1-25 μM) | < 350
28 | O=C(Nc1ccccn1)c1cnn2ccc(-c3ccccc3OC(F)(F)F)nc12 [Compound 529] | A (EC1.5<1 μM) | ≥ 350 | A (EC1.5<1 μM) | < 350
29 | O=C(Nc1cccnc1)c1cnn2ccc(-c3ccccc3OC(F)(F)F)nc12 [Compound 530] | A (EC1.5<1 μM) | ≥ 350 | A (EC1.5<1 μM) | ≥ 350
30 | O=C(Nc1ccncn1)c1cnn2ccc(-c3ccccc3OC(F)(F)F)nc12 [Compound 533, N-(pyrimidin-4-yl)-5-(2-(trifluoromethoxy)phenyl)pyrazolo[1,5-a]pyrimidine-3-carboxamide] | A (EC1.5<1 μM) | ≥ 350 | B (EC1.5 1-25 μM) | < 350
31 | O=C(Nc1cccc(CN2CCOCC2)n1)c1cnn2ccc(-c3ccccc3OC(F)(F)F)nc12 [Compound 535] | A (EC1.5<1 μM) | ≥ 350 | A (EC1.5<1 μM) | ≥ 350
